Values quoted from earlier work, collected in patent US20040248933A1, “Use of 4-phenyl-substituted tetrahydroisoquinolines in the treatment of pain, migraine headaches and urinary incontinence” (priority 2002, published 2004).

Test system: nocturnal enuresis patients
Settings: patients with nocturnal enuresis following treatment

CN(C)CCCN1c2ccccc2CCc2ccccc21 [imipramine, Imipramine]
Enuresis cured, share of patients: over 50%
Improvements seen, further share of patients (in addition to those cured): 15-20%
